Experimental data from US6689777B2 (Kenneth S. Warren Institute, priority 2001, dated 2004).
pIC50: −log10 of the molar value.

What was measured:
synthetic hemozoin = test: Depolymerization of synthetic hemozoin in vitro; assay type: biochemical; conditions: Table 3; 50 mM test compound, acetate buffer pH 5.0, 37° C., 16 hours
Description: This activity is evaluated by incubating a suspension of monomer-free hemozoin at 37° C. with compounds of the present invention for 16 hours. After incubation, hemozoin is separated from any solubilized heme and soluble heme oligomers, the oligomers depolymerized, and the heme present in the supernatants determined.
The synthesis of synthetic hemozoin is carried out as previously described (26). In brief, 60 μmoles of hematin was dissolved in 8 ml of 0.1N NaOH. Following dissolution 49 mmoles of glacial acetic acid was added and the suspension heated at 70° C. overnight. The precipitate was then washed extensively with LPS-free water. In order to remove unreacted heme the precipitate was extracted with 0.1M sodium bicarbonate (pH 9.1) for three hours. The remaining insoluble material was recovered by centrifugation, resuspended in EtOH and transferred to sterile Eppendorf tubes. The material was washed several times in EtOH and finally resuspended in LPS-free double-distilled H2O. The hemozoin preparation was then tested for endotoxin by using the Limulus Amebocyte Lysate test following manufacturer's instructions. Although the preparation of LPS-free hemozoin from native or synthetic sources is not critical for in vitro depolymerization studies, it is critical for studies involving monocytes and animals (see Examples below). Small amounts of LPS can evoke a considerable cytokine response and interfere with interpretation of results. The amount of heme in the final product was determined from a small aliquot using the pyridine-hemochrome method as previously described (26). The preparations are stored at 4° C. until used.
A suspension of monomer-free hemozoin (equivalent to 2 mM free heme) as prepared above was incubated at 37° C. with […] test compound in total volume of 500 μl in acetate buffer (pH: 5.0) in siliconized Eppendorf tubes (Brinkmann Instruments, Westbury, N.Y.) for 16 hours. A control sample containing distilled H2O instead of hemozoin was included. The samples were centrifuged at 14,000 rpm (Eppendorf centrifuge model 5415C, Brinkmann Instruments, Westbury, N.Y.) for 20 min; then 225 μl supernatant was diluted in 175 μl acetate buffer (pH 5.0). Another 225 μl was added to 175 μl 0.5 M NaOH to dissolve possible oligomeric depolymerization products to monomers. Half of the pellet was washed twice for 2.5 hr in 200 μl 2.5% SDS (v/v) in dH2O, the other half was washed twice in 200 μl HCO3^− buffer (pH: 9.1). Both sample supernatants and SDS and HCO3^− buffer supernatants were centrifuged 14,000 rpm for 20 min. and supernatants were added to 10 μl sodium dithionite (200 mg/ml dH2O) to reduce the heme monomers in solution to Fe^2+. All samples were measured in triplicate at 540 nm (Model UV1601 spectrophotometer, Shimradzu Corp, Columbia, Md.). The OD obtained from the blind sample was subtracted from the OD of the hemozoin containing sample.

P. falciparum = P. falciparum growth in culture ([3H]-hypoxanthine incorporation); assay type: cell-based; conditions: Plasmodium falciparum, Table 3, naphthothiazolium salts, in culture, read-out: IC50 vs. P. falc.
[1] = system: P. falciparum chloroquine resistant strain (CQR); test: P. falciparum growth in culture, chloroquine resistant strain ([3H]-hypoxanthine incorporation); assay type: cell-based; conditions: Plasmodium falciparum, Table 3, read-out: IC50 vs. P. falc. in CQR
Description: To determine the effectiveness of the compounds of the present invention against the erythrocytic stage of the malarial parasite, P. falciparum was grown in human erythrocyte suspensions and maintained at 37° C. in candle jars according to the method of Trager and Jensen (15,16). Parasites were stage-synchronized by incubating mainly ring-stage infected erythrocytes in 5% sorbitol for 10 minutes at room temperature (17). Cultures undergo one growth cycle (2 days) before use. Strains used include the chloroquine sensitive strains D10 and HB3, and the chloroquine resistant isolates Dd2 and FCR.
(§1) Parasite growth was determined by measuring incorporation of [^3H]-hypoxanthine into the nucleic acids of the parasite (18). Effects of the compounds of the present invention on parasite growth was determined by measuring the reduction in incorporation of radiolabel as compared to controls. […] After 18 h the plates are harvested onto glass fiber filter 96 well plates using a cell harvester, dried, and the amount of radioactivity is determined. […]
as §1, with “as previously described (23).” for “(18).”, “The,” for “After 18 h the plates are harvested onto glass fiber filter 96 well plates using a cell harvester, dried, and the”, “was” for “is”

[2] = system: freshly isolated human monocytes; test: Spontaneous and PMA-elicited oxidative burst by freshly isolated human monocytes; assay type: cell-based; conditions: compound 25 uM, PMA 200 nM
Description: Furthermore, Arese and colleagues have data supporting the role of the ingested hemozoin in macrophage dysfunction. Therefore, the compounds of the present invention were evaluated to assess their ability to induce recovery of macrophage effector functions induced by hemozoin. Initially, the effect of the compounds of the present invention were evaluated on spontaneous and PMA-elicited oxidative burst by freshly isolated human monocytes. As will be elaborated upon in the Examples below, freshly isolated human monocytes were plated at 5×10^6 cells/ml, and allowed to equilibrate to 37° C. for 1 h. Compounds of the instant invention were added at a final concentration of 25 uM and PMA added to 200 nM final concentration. Cell suspension aliquots were taken at 30, 60, and 120 minutes, and 14 hours. The oxidative burst was measured by luminol-elicited chemiluminescence for 30 sec., and data expressed as counts per 0.5×10^6 cells.

[3] = system: hemozoin ingested by human monocytes; test: Breakdown of macrophage-ingested hemozoin; assay type: cell-based; conditions: 25 μM compound, FIG. 1
Description: A further evaluation of compounds was performed for activity against pathophysiological effects of hemozoin on the host, using hemozoin-laden macrophages in culture. Freshly-isolated human monocytes were suspended in medium and hemozoin at a concentration reflective of the amount of hemozoin released into circulation during schizogony. In order to maximize contact between hemozoin and monocytes, the cell preparations were centrifuged for 5 sec at 150×g. Ingestion of hemozoin is essentially complete by two hours. Cells were then washed, plated and kept in a humidified incubator. The test compounds of the present invention were added to the wells at concentrations ranging from 0 to 20 mM. Macrophage viability was determined by direct microscopic examination (gross morphology and detachment from the well), trypan blue exclusion method, and LDH release. […] At various times post-treatment (1 hour; 3 hours), cells were lysed, extensively washed and spun down (2500×g) to pellet any cellular components including hemozoin. The lysates were then treated with alkali to dissolve hemozoin to give monomeric heme (35). Monomeric heme was quantified as described above.
Human monocytes were freshly isolated from a buffy coat from a normal donor using Percoll gradients. […] Cells were solubilized at various time points and hemozoin content determined by luminol-elicited chemiluminescence.

Row | SMILES | % depol. hemoz. (synthetic hemozoin) [%] | pIC50 (P. falciparum) | pIC50 [1] | oxidative burst (luminol-elicited chemiluminescence) [2] | hemozoin content of monocytes after phagocytosis of hemozoin (luminol-elicited chemiluminescence) [3]
1 | Cc1c(O)c2ccccc2c2c1sc(NCCCN1CCN(C)CC1)[n+]2C.[Cl-] [1,2-dihydro-1,4-dimethyl-2-[[3-(4-methyl-1-piperazinyl)propyl]imino]naphtho[1,2-d]thiazol-5-ol trihydrochloride] | 2.0 | 7.12 | 6.30 |  | 
2 | Cc1c(O)c2ccccc2c2c1sc(NC1CCCCC1)[n+]2CCCN(C)C.Cl.[Cl-] [2-(cyclohexylimino)-1,2-dihydro-4-methyl-1-[3-(dimethylamino)propyl]naphtho[1,2-d]thiazol-5-ol dihydrochloride] | 2.2 | 7.12 | 7.12 | strong inhibitor | hemozoin-dissolving ability
